1 compound from patent EP1263444B1, “USE OF XANTHINE DERIVATIVES FOR PREPARING A MEDICINE FOR PREVENTING AND TREATING OSTEOPOROSIS” (Aventis Pharma S.A., priority 2000, dated 2001) can be followed below.

Each structure is given as a SMILES string.

Type in all cases: in vivo
For data set [1], the system named is rate ovariectomisée. The data set is described as follows: Uterus weight in the ovariectomised rat model. Particulars: 10 mg/kg po, 4 weeks, weight increase in % of uterus weight of OVX animals receiving solvent only. The text has this: (§1) L'impact osseux des dérivés de xanthine selon l'invention a été évalué sur un modèle d'ostéopénie, la rate ovariectomisée à l'âge de 3 mois, afin de déterminer son effet sur la masse osseuse, et sur l'activité de formation et de résorption osseuse sur ce modèle. Les animaux sont traités en préventif.
(§2) Sur ce modèle d'ostéopénie l'effet d'un dérivé xanthine est comparé à celui de la PTH • Produit à tester : Le [1-(3-phénylxanthin-1-yl)méthyl] diméthylphosphine oxide • véhicule(s) : méthylcellulose 0,5 % ou sérum physiologique • dose(s) : 10 mg/kg pour le produit. la PTH est administrée à la dose de 10 et 25 µg/kg/j par voie sous cutanée • nombre d'administrations : une fois/jour; 5 jours/semaine pendant 4 semaines • voie d'administration : voie orale pour le produit. La PTH est administrée par voie sous cutanée • volume : 1 ml/kg p o et s c • délai entre l'injection et le sacrifice : 24 heures • nombre d'administrations : 20.
(§3) Des rats femelles âgées de 3 mois et pesant environ 250-300 g sont ovariectomisées sous anesthésie à l'Imalgène 1000, à la dose de 100 mg/kg par voie intrapéritonéale (i.p) et sous un volume de 1 ml/kg. Ils reçoivent également du Nembutal (3 mg/kg i.p. sous un volume de 0,3 ml/kg). Les animaux sont répartis en groupes de 8 rats.
(§4) Après incision latérale, les plans cutanés et musculaires sont sectionnés. L'exérèse de chaque ovaire se fait après ligature de l'oviducte. […]

Data set [2] deals with rate ovariectomisée. Briefly: Serum cholesterol level in the ovariectomised rat model. Particulars: 10 mg/kg po, 4 weeks, decrease of serum cholesterol in % versus OVX animals receiving solvent only.
From the text: as §1, §2, §3, §4

The subject of data set [3] is rate ovariectomisée. Briefly: Bone mineral density (DEXA) of the left tibia in the ovariectomised rat osteopenia model, preventive treatment. Particulars: 10 mg/kg po, once daily, 5 days/week for 4 weeks; (BMD treated - BMD OVX)/(BMD SHAM - BMD OVX) x 100.
From the text: as §1, §2, §3, §4

Turning to `CP(C)(=O)Cn1c(=O)c2[nH]cnc2n(-c2ccccc2)c1=O` [Dérivé xanthine, [1-(3-phénylxanthin-1-yl)méthyl] diméthylphosphine oxide], the “UTERUS Poids %” value with rate ovariectomisée [1] was 10%; in the data set on rate ovariectomisée [1] (listed as Ce produit), “aucune activité utérotrophique”. Besides, the Cholestérol % entry with rate ovariectomisée [2] is recorded as “Pas d'effet”; in the data set on rate ovariectomisée [2] (listed as Ce produit), “pas d'effet”. Besides, in the data set with rate ovariectomisée [3], the “OS TIBIA Densité %” value is given as 40%.
